From patent publication US20260248828A1, “Pyropheophorbide Analogues for Therapy and Diagnosis” (RMW Cho Group Limited, priority 2023, published 2026)
Read-outs that look alike come from different tables or passages of the source.

Experiments:
[1] = test system: SKOV3 ovarian cancer cells; assay: Phototoxicity in SKOV3 cells after 660 nm light activation (AlamarBlue viability); format: cell-based, Human; details: 24 h uptake, 660 nm laser or LED 50 mW/cm^2 for 5 mins (15 J/cm^2), viability 24 h after activation
Method: Samples were stored at 4° C. protected from light.
All data are shown as mean±SD (where appropriate).
To test for phototoxicity, cells incubated with pyropheophorbide a analogues (0-20 μM in DMSO) had culture media replaced after 24 hours (as above) and were then exposed to a 660 nm laser (Invion) or light-emitting diode (LED) panel (Invion) with optical power density at 50 mW/cm^2 for 5 mins (total 15 J/cm^2). Laser and LED exposure induce an equivalent response in relation to phototoxicity. Following activation, cells were cultured for a further 24 hours. Media was then replaced with fresh media containing AlamarBlue, and % viable cells remaining assessed as above. Controls included cells treated with pyropheophorbide a analogues but not activated by laser light; cells without pyropheophorbide a analogue treatment but with laser light; and untreated controls. All measurements were made in quadruplicate.
To evaluate the therapeutic potential of pyropheophorbide a analogues, the therapeutic index (TI) was calculated. TI provides a quantitative measurement to describe relative drug safety, by comparing the drug concentration required for desirable effects versus the concentration resulting in undesirable off-target toxicity. TI was calculated using phototoxicity IC90 vs dark toxicity IC10.

[2] = test system: SKOV3 ovarian cancer cells
Method: (§1) Photosensitizers (e.g. pyropheophorbide a analogue, chlorin e4 disodium (provided by Advanced Molecular Technologies, Scoresby) or Talaporfin sodium (purchased from Focus Bioscience cat #HY-16477-5MG)) were resuspended in 100% dimethylsulfoxide (DMSO) at a concentration of 5.5 mM. Samples were stored at 4° C. protected from light.
(§2) For in vitro experiments, photosensitizers (stock solution 5.5 mM in 100% DMSO) were diluted 1:100 in concentrated excipient solution (final 55 M photosensitizer in 10% w/v Kollidon-12, 42.4% w/v polysorbate 80, 0.6% w/v citric acid anhydrous, 40% w/v ethanol, 1.0% DMSO). Serial dilutions were prepared in cell culture media (Dulbecco's Modified Eagle Medium/Nutrient Mixture F-12 (DMEM/F-12)) supplemented with 10% v/v Fetal Bovine Serum, 100 U/mL penicillin, 100 μg/mL streptomycin and the same excipient solution at a constant 1:55 dilution.
(§3) Human ovarian cancer cell line SKOV3 (ATCC #HTB-77) was maintained in Dulbecco's Modified Eagle Medium/Nutrient Mixture F-12 (DMEM/F-12), supplemented with 10% v/v Fetal Bovine Serum, 100 U/mL penicillin and 100 μg/mL streptomycin. Monolayer cultures were grown in a humidified incubator at 37° C. with 5% CO2. Once cells had reached ~80% confluence, spent media was replaced with media containing photosensitizer at the required concentration and cells were incubated for the desired period of time to allow photosensitizer uptake.
(§4) Spectral absorbance and viability measurements were normalized in the range 0-100%, with a minimum of 0 and a maximum value determined from the dataset. Dose response was determined using a sigmoidal four-point non-linear regression with variable slope, and IC10 or IC90 calculated for each compound.
(§5) SKOV3 cells were seeded in 96-well black wall plates (Greiner #655090) at a cell density of 5000 cells in 100 μl culture medium per well. On reaching ~60% confluence, media was aspirated and replaced with fresh media containing the relevant pyropheophorbide a analogue from 0-100 μM in DMSO. Cells were incubated for a further 24 hours, allowing uptake of pyropheophorbide a analogues.
(§6) To test for inherent cytotoxicity (i.e. “dark toxicity”) of the pyropheophorbide a analogues, the culture media was replaced after 24 hours with fresh media containing 10% (v/v) AlamarBlue Cell Viability Reagent (ThermoFisher) and cells incubated at 37° C. for 6 hours. Untreated cells were used as a control. Fluorescence (Ex 555 nm/Em 596 nm) was measured using a Cytation 3 Cell Imaging Multi-Mode Reader (Biotek) or a CLARIOstar Plus Microplate Readear (BMG Labtech), and cytotoxicity assessed according to the % viable cells remaining. All measurements were made in quadruplicate.
(§7) The phototoxicity and inherent cytotoxicity (i.e. “dark toxicity”) of pyropheophorbide a analogues were assessed as previously using SKOV3 ovarian cancer cells. For comparative purposes, pyropheophorbide a analogues were compared against chlorin e4 disodium and Talaporfin sodium, a clinically approved photosensitizer used in the photodynamic treatment of lung cancers. Phototoxicity IC90 values and dark toxicity IC10 values were calculated using a log[inhibitor]-vs normalized response dose curve with variable slope, using the formula Y=100/(1+(IC90/X)^HillSlope (phototoxicity IC90)) or Y=100/(1+(IC10/X)^HillSlope (dark toxicity IC10)).

[3] = test system: SKOV3 ovarian cancer cells; assay: Inherent cytotoxicity (dark toxicity) in SKOV3 cells without light (AlamarBlue viability); details: 24 h incubation, no light activation
Method: as §1, §2, §3, §4, §5, §6, §7

[4] = Homo sapiens, SK-OV-3, light or radiation study

SMILES	IC90 [1]	Dark toxicity μM (IC10) [2]	IC90 [1, 4]	Dark toxicity μM (IC10) ([2]; human, 24 h)	Dark toxicity μM (IC10) [3]
C=Cc1c(C)c2cc3nc(c(C)c4[nH]c(cc5nc(cc1[nH]2)C(C)=C5CC)c(C)c4C(=O)O)[C@@H](CCC(=O)O)[C@@H]3C [Chlorin e4 disodium, chlorin e4 disodium, reference compound]	21.3 µM	40.23 µM	–	–	–
CCC1=C(C)c2cc3[nH]c(cc4nc(c5c6[nH]c(cc1n2)c(C)c6C(=O)C5)[C@@H](CCC(=O)OC)[C@@H]4C)c(C)c3CO [Comparative Compound 1, pyropheophorbide a 9-hydroxymethyl methyl ester, reference compound]	–	–	0.458 µM	15.500 µM	–
CCC1=C(C)c2cc3[nH]c(cc4nc(c5c6[nH]c(cc1n2)c(C)c6C(=O)C5)[C@@H](CCC(=O)OC)[C@@H]4C)c(C)c3COC(=O)NCCC[P+](c1ccccc1)(c1ccccc1)c1ccccc1 [Compound 1, pyropheophorbide a methyl ester 9-(N-(3-triphenylphosphoniumpropyl)bromide)carbamate]	–	–	0.038 µM	–	3.088 µM
CCC1=C(C)c2cc3[nH]c(cc4nc(c5c6[nH]c(cc1n2)c(C)c6C(=O)C5)[C@@H](CCC(=O)OC)[C@@H]4C)c(C)c3COC(=O)CCCC[P+](c1ccccc1)(c1ccccc1)c1ccccc1 [Compound 2, pyropheophorbide a methyl ester 9-(oxopentyl)triphenylphosphonium bromide]	–	–	0.002 µM	0.415 µM	–
CCC1=C(C)c2cc3[nH]c(cc4nc(c5c6[nH]c(cc1n2)c(C)c6C(=O)C5)[C@@H](CCC(=O)OC)[C@@H]4C)c(C)c3CN(C)C(=O)CCCC[P+](c1ccccc1)(c1ccccc1)c1ccccc1 [Compound 3, pyropheophorbide a 9-N-(methyl-5-triphenylphosphonium bromidepentanamide) methyl ester]	–	–	0.012 µM	24.00 µM	–
CCC1=C(C)c2cc3[nH]c(cc4nc(c5c6[nH]c(cc1n2)c(C)c6C(=O)C5)[C@@H](CCC(=O)OC)[C@@H]4C)c(C)c3CNCCC[P+](c1ccccc1)(c1ccccc1)c1ccccc1 [Compound 4, pyropheophorbide a 9-(N-3-triphenylphosphoniumpropyl bromide)aminomethyl methyl ester]	–	–	0.048 µM	–	50.90 µM
CCOC(=O)N(CCC[P+](c1ccccc1)(c1ccccc1)c1ccccc1)Cc1c(C)c2cc3nc(c4c5[nH]c(cc6nc(cc1[nH]2)C(C)=C6CC)c(C)c5C(=O)C4)[C@@H](CCC(=O)OC)[C@@H]3C [Compound 5, pyropheophorbide a 9-(N-3-triphenylphosphoniumpropyl bromide ethylcarbamate)aminomethyl methyl ester]	–	–	0.006 µM	–	48.97 µM
C=Cc1c(C)c2cc3nc(c(CC(=O)N[C@@H](CC(=O)O)C(=O)O)c4[nH]c(cc5nc(cc1[nH]2)C(C)=C5CC)c(C)c4C(=O)O)[C@@H](CCC(=O)O)[C@@H]3C [Talaporfin sodium]	–	–	–	11.10 µM	–
